PMC2248166, “Quantitative peptide binding motifs for 19 human and mouse MHC class I molecules derived using positional scanning combinatorial peptide libraries” (Immunome Research, 2008)

target: HLA A*3001 (Homo sapiens, UniProt P04439, D140H/D185E/E176W/F33S/G80R/H175R/K168Q/R138E/R41S); experiment: biochemical; format: binding

Row | Sequence | Normalized average relative binding affinity(ARB)
1 | XXXWXXXXX [3064.0079] | 0.45
2 | XXXXAXXXX [3064.0081] | 0.48
3 | XXXXCXXXX [3064.0082] | 0.12
4 | XXXXDXXXX [3064.0083] | 0.041
5 | XXXXEXXXX [3064.0084] | 0.099
6 | XXXXFXXXX [3064.0085] | 0.38

target: HLA A*3201 (Homo sapiens, UniProt P04439, A270S/D101S/D185E/E176V/E277Q/F133L/G103R/G107R/G231S/H175R/I121M/I218V/I322F/K168Q/L105A/L300P/L318F/M331R/P208A/P217A/Q94H/R106L/R138Q/S129P/T104I/T323A/T345S/V100E/V321M/V358M); experiment: biochemical; format: binding

Row | Sequence | Normalized average relative binding affinity(ARB)
7 | XXXWXXXXX [3064.0079] | 0.29
8 | XXXXAXXXX [3064.0081] | 0.14
9 | XXXXCXXXX [3064.0082] | 0.15
10 | XXXXDXXXX [3064.0083] | 0.043
11 | XXXXEXXXX [3064.0084] | 0.066
12 | XXXXFXXXX [3064.0085] | 1.0

target: HLA A*6802 (Homo sapiens, UniProt P04439, A269V/D140Y/D185E/E176V/E277Q/E87N/F33Y/G231S/I121R/I166T/I218V/L180W/L300P/L318F/N151K/P208A/P217A/Q86R/R138H/R169H/S129P/T345S/V36M); experiment: not given; format: binding

Row | Sequence | Normalized average relative binding affinity(ARB)
13 | XXXWXXXXX [3064.0079] | 0.56
14 | XXXXAXXXX [3064.0081] | 0.48
15 | XXXXCXXXX [3064.0082] | 0.65
16 | XXXXDXXXX [3064.0083] | 0.20
17 | XXXXEXXXX [3064.0084] | 0.20
18 | XXXXFXXXX [3064.0085] | 0.87

target: HLA B*0801 (Homo sapiens, UniProt P01889, A93T/A95T/D138N/E176V/E187T/K202T/Q94N/R180D/S35A/V36M/Y33D/Y91F); experiment: biochemical; format: binding

Row | Sequence | Normalized average relative binding affinity(ARB)
19 | XXXWXXXXX [3064.0079] | 0.68
20 | XXXXAXXXX [3064.0081] | 0.029
21 | XXXXCXXXX [3064.0082] | 0.020
22 | XXXXDXXXX [3064.0083] | 0.0054
23 | XXXXEXXXX [3064.0084] | 0.014
24 | XXXXFXXXX [3064.0085] | 0.21

target: HLA B*1501 (Homo sapiens, UniProt P01889, A329T/A93T/A95T/C349S/D201E/D98Y/E187L/E204Q/E69M/E70A/K202T/N87E/Q94N/R155S/R180W/S121R/S35A/S48A/V306I/V36M/Y140S/Y91S); experiment: biochemical; format: binding

Row | Sequence | Normalized average relative binding affinity(ARB)
25 | XXXWXXXXX [3064.0079] | 0.39
26 | XXXXAXXXX [3064.0081] | 0.64
27 | XXXXCXXXX [3064.0082] | 0.87
28 | XXXXDXXXX [3064.0083] | 0.17
29 | XXXXEXXXX [3064.0084] | 0.42
30 | XXXXFXXXX [3064.0085] | 0.52

target: HLA B*1503 (Homo sapiens, UniProt P01889, A329T/A93T/A95T/C349S/D201E/D98Y/E187L/E204Q/K202T/N87E/Q94N/R155S/R180L/S121R/S35A/V306I/V36M/Y140S/Y91S); experiment: biochemical; format: binding

Row | Sequence | Normalized average relative binding affinity(ARB)
31 | XXXWXXXXX [3064.0079] | 0.63
32 | XXXXAXXXX [3064.0081] | 1.0
33 | XXXXCXXXX [3064.0082] | 0.62
34 | XXXXDXXXX [3064.0083] | 0.23
35 | XXXXEXXXX [3064.0084] | 0.41
36 | XXXXFXXXX [3064.0085] | 0.78

target: HLA B*3501 (Homo sapiens, UniProt P01889, A329T/A93T/A95T/C349S/D201E/D98Y/E176V/E187L/E204Q/E69T/I218V/K202T/L119I/Q94N/R155S/R180L/S121R/S35A/S48A/T118I/V127L/V306I/V36M/Y140S/Y91F); experiment: not given; format: binding

Row | Sequence | Normalized average relative binding affinity(ARB)
37 | XXXWXXXXX [3064.0079] | 0.32
38 | XXXXAXXXX [3064.0081] | 0.57
39 | XXXXCXXXX [3064.0082] | 0.37
40 | XXXXDXXXX [3064.0083] | 0.25
41 | XXXXEXXXX [3064.0084] | 0.34
42 | XXXXFXXXX [3064.0085] | 0.63

target: HLA B*5101 (Homo sapiens, UniProt P01889, A329T/A93T/A95T/C349S/D138N/D201E/D98Y/E187L/E204Q/E69T/G107R/I218V/K202T/L105A/L119W/N104I/Q94N/R106L/R155S/R180L/S101N/S121T/S35A/S48A/V306I/V36M/Y195H/Y91F); experiment: not given; format: binding

Row | Sequence | Normalized average relative binding affinity(ARB)
43 | XXXWXXXXX [3064.0079] | 0.82
44 | XXXXAXXXX [3064.0081] | 1.0
45 | XXXXCXXXX [3064.0082] | 0.38
46 | XXXXDXXXX [3064.0083] | 0.34
47 | XXXXEXXXX [3064.0084] | 0.20
48 | XXXXFXXXX [3064.0085] | 0.29

target: HLA B*5301 (Homo sapiens, UniProt P01889, A329T/A93T/A95T/C349S/D201E/D98Y/E176V/E187L/E204Q/E69T/G107R/I218V/K202T/L105A/L119I/N104I/Q94N/R106L/R155S/R180L/S101N/S121R/S35A/S48A/T118I/V127L/V306I/V36M/Y140S/Y91F); experiment: not given; format: binding

Row | Sequence | Normalized average relative binding affinity(ARB)
49 | XXXWXXXXX [3064.0079] | 1.0
50 | XXXXAXXXX [3064.0081] | 0.13
51 | XXXXCXXXX [3064.0082] | 0.13
52 | XXXXDXXXX [3064.0083] | 0.13
53 | XXXXEXXXX [3064.0084] | 0.15
54 | XXXXFXXXX [3064.0085] | 1.0

target: HLA B*5401 (Homo sapiens, UniProt P01889, A329T/C349S/D138N/D201E/E176V/E187T/E204Q/E69G/I76V/K202T/L119W/R155S/R180L/S121T/S35A/S48A/V127L/V306I/V36M/Y140L); experiment: not given; format: binding

Row | Sequence | Normalized average relative binding affinity(ARB)
55 | XXXWXXXXX [3064.0079] | 1.0
56 | XXXXAXXXX [3064.0081] | 0.29
57 | XXXXCXXXX [3064.0082] | 0.39
58 | XXXXDXXXX [3064.0083] | 0.27
59 | XXXXEXXXX [3064.0084] | 0.26
60 | XXXXFXXXX [3064.0085] | 1.0

target: HLA B*5801 (Homo sapiens, UniProt P01889, A329T/C349S/D201E/D98Y/E176V/E187L/E204Q/E69T/G107R/I218V/I90N/K202T/L105A/L119I/N104I/N87E/Q89R/Q94S/R106L/R155S/R180L/R86G/S101N/S121R/S35A/S48A/T118I/V127L/V306I/V36M/Y140S/Y91M); experiment: not given; format: binding

Row | Sequence | Normalized average relative binding affinity(ARB)
61 | XXXWXXXXX [3064.0079] | 0.33
62 | XXXXAXXXX [3064.0081] | 0.28
63 | XXXXCXXXX [3064.0082] | 0.14
64 | XXXXDXXXX [3064.0083] | 0.11
65 | XXXXEXXXX [3064.0084] | 0.21
66 | XXXXFXXXX [3064.0085] | 0.43

target: HLA B*5802 (Homo sapiens, UniProt P01889, A329T/C349S/D201E/D98Y/E176V/E187L/E204Q/E69T/G107R/I218V/I90N/K202T/L105A/N104I/N87E/Q89R/Q94S/R106L/R155S/R180L/R86G/S101N/S121W/S35A/S48A/V127L/V306I/V36M/Y140S/Y91M); experiment: not given; format: binding

Row | Sequence | Normalized average relative binding affinity(ARB)
67 | XXXWXXXXX [3064.0079] | 0.72
68 | XXXXAXXXX [3064.0081] | 0.56
69 | XXXXCXXXX [3064.0082] | 0.53
70 | XXXXDXXXX [3064.0083] | 0.12
71 | XXXXEXXXX [3064.0084] | 0.23
72 | XXXXFXXXX [3064.0085] | 0.089

target: H-2 D^b (Mus musculus, UniProt P01899); experiment: not given; format: binding
Sequence (P01887 21-119): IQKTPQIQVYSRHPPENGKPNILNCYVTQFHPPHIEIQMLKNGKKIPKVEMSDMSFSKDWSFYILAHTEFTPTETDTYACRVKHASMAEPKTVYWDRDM
Sequence (P01899 25-362): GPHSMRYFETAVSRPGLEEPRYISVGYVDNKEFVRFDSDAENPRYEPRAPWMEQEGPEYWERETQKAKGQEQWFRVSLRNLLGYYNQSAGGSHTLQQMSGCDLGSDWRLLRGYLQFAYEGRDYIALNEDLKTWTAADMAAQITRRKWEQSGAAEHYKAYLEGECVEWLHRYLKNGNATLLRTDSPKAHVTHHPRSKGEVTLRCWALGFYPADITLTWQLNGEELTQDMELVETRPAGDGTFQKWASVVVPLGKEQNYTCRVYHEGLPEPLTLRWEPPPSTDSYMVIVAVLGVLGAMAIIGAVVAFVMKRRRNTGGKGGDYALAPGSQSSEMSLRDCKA

Row | Sequence | Normalized average relative binding affinity(ARB)
73 | XXXWXXXXX [3064.0079] | 0.56
74 | XXXXAXXXX [3064.0081] | 0.046
75 | XXXXCXXXX [3064.0082] | 0.060
76 | XXXXDXXXX [3064.0083] | 0.058
77 | XXXXEXXXX [3064.0084] | 0.021
78 | XXXXFXXXX [3064.0085] | 0.044

target: H-2 D^d (Mus musculus, UniProt P01900); experiment: not given; format: binding
Sequence (P01900 whole entry, looked up): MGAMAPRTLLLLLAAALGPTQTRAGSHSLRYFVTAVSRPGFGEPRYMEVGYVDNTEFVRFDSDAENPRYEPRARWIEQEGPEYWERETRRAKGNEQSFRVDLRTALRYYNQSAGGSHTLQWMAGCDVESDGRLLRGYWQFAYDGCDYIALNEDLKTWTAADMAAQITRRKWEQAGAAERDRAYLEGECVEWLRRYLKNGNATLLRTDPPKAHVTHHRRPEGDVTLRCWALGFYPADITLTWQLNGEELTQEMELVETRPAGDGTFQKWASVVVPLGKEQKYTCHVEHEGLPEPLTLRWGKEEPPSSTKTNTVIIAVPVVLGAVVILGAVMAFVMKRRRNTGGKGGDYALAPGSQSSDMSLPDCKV

Row | Sequence | Normalized average relative binding affinity(ARB)
79 | XXXWXXXXX [3064.0079] | 0.54
80 | XXXXAXXXX [3064.0081] | 0.37
81 | XXXXCXXXX [3064.0082] | 0.045
82 | XXXXDXXXX [3064.0083] | 0.049
83 | XXXXEXXXX [3064.0084] | 0.059
84 | XXXXFXXXX [3064.0085] | 0.16

target: H-2 K^d (Mus musculus, UniProt P01902); experiment: not given; format: binding
Sequence (P01887 21-119): as the sequence (P01887 21-119) above
Sequence (P01902 22-368): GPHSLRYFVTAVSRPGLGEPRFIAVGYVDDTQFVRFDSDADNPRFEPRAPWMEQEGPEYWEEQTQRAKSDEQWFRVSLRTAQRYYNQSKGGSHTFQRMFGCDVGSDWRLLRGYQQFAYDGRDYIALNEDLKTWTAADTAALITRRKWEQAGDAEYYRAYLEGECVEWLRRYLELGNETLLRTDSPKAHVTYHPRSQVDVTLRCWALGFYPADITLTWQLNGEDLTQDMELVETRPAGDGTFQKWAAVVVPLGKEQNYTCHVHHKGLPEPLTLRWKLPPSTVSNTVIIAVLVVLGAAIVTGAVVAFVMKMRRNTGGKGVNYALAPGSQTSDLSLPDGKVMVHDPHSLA

Row | Sequence | Normalized average relative binding affinity(ARB)
85 | XXXWXXXXX [3064.0079] | 0.040
86 | XXXXAXXXX [3064.0081] | 0.37
87 | XXXXCXXXX [3064.0082] | 0.19
88 | XXXXDXXXX [3064.0083] | 0.15
89 | XXXXEXXXX [3064.0084] | 0.031
90 | XXXXFXXXX [3064.0085] | 0.13

target: H-2 K^k (Mus musculus, UniProt P04223); experiment: not given; format: binding
Sequence (P01887 21-119): as the sequence (P01887 21-119) above
Sequence (P04223 22-369): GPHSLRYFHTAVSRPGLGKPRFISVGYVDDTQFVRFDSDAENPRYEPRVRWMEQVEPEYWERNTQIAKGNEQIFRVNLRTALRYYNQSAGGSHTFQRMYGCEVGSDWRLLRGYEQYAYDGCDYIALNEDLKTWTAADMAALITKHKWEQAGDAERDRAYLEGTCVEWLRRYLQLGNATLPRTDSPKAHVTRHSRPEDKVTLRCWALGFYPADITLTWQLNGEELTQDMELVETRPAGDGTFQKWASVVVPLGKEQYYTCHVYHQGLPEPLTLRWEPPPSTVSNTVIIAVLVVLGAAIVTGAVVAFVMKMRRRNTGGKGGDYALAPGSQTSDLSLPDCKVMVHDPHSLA

Row | Sequence | Normalized average relative binding affinity(ARB)
91 | XXXWXXXXX [3064.0079] | 1.0
92 | XXXXAXXXX [3064.0081] | 0.14
93 | XXXXCXXXX [3064.0082] | 0.095
94 | XXXXDXXXX [3064.0083] | 0.026
95 | XXXXEXXXX [3064.0084] | 0.11
96 | XXXXFXXXX [3064.0085] | 0.19
